Assay results from US6683077B2, “2-Amino-benzoxazinones for the treatment of viral infections” (G.D. Searle & Co., priority 1996, dated 2004).

Tested on: HCMV engineered virus RC256
Test: microbe, parasite or virus in culture
Format: cell-based, human cytomegalovirus
Settings: Human betaherpesvirus 5, Fibroblast, read-out: Antiviral Activity RC256, first value (EC50)

| SMILES | EC50 [µM] |
| --- | --- |
| Cc1c(CNC(=O)OCc2ccccc2)ccc2nc(N[C@@H](Cc3ccc(Cl)cc3)C(=O)N(C)Cc3ccccc3)oc(=O)c12 [Example 9t, Phenylmethyl[[2-[[1S-[(4-chlorophenyl)methyl]-2-[methyl(phenylmethyl)amino]-2-oxoethyl]amino]-5-methyl-4-oxo-4H-3,1-benzoxazin-6-yl]methyl]carbamate] | 20 |
| COC(=O)[C@H](Cc1ccc(I)cc1)Nc1nc2ccc(NC(=O)OC(C)(C)C)c(C)c2c(=O)o1 [Example 6t, N-[6-[[(1,1-Dimethylethoxy)carbonyl]amino]-5-methyl-4-oxo-4H-3,1-benzoxazin-2-yl]-4-iodo-L-phenylalanine, methyl ester] | 17 |
| CCN(Cc1ccccc1)C(=O)[C@H](Cc1ccccc1)Nc1nc2ccc(N)c(C)c2c(=O)o1 [Example 8f, αS-[(6-Amino-5-methyl-4-oxo-4H-3,1-benzoxazin-2-yl)amino]-N-ethyl-N-(phenylmethyl)benzenepropanamide] | 17 |
| Cc1c(CNC(=O)CCc2ccccc2)ccc2nc(N[C@@H](Cc3ccccc3)C(=O)N(C)Cc3ccccc3)oc(=O)c12 [Example 9w, N-Methyl-αS-[[5-methyl-6-[[(1-oxo-3-phenylpropyl)amino]-methyl]-4-oxo-4H-3,1-benzoxazin-2-yl]amino]-N-(phenylmethyl)benzenepropanamide] | 13 |
| COC(=O)[C@H](C)Nc1nc2ccc(NS(=O)(=O)c3ccccc3)c(C)c2c(=O)o1 [Example 13a] | 60 |
| Cc1c(NC(=O)OC(C)(C)C)ccc2nc(N[C@H](C)c3ccccc3)oc(=O)c12 [Example 6n, 6-[[(1,1-Dimethylethoxy)carbonyl]amino]-5-methyl-2-[[(1R)-phenylethyl]amino]-4H-3,1-benzoxazin-4-one] | 10 |
| CCN(Cc1ccccc1)C(=O)[C@H](Cc1ccccc1)Nc1nc2c(Br)cc(N)c(C)c2c(=O)o1 [Example 8g, αS-[(6-Amino-8-bromo-5-methyl-4-oxo-4H-3,1-benzoxazin-2-yl)amino]-N-ethyl-N-(phenylmethyl)benzenepropanamide] | 8.5 |
| COC[C@H](Cc1ccccc1)Nc1nc2cccc(C)c2c(=O)o1 [Example 1p, 2-[[2-Methoxy-(1S)-(1-phenylmethyl)ethyl]amino]-5-methyl-4H-3,1-benzoxazin-4-one] | 38 |
| COc1ccc(C[C@H](Nc2nc3ccc(N)c(C)c3c(=O)o2)C(=O)N(C)Cc2ccccc2)cc1 [Example 8h, αS-[(6-amino-5-methyl-4-oxo-4H-3,1-benzoxazin-2-yl)amino]-N-methyl-4-methoxy-N-(phenylmethyl)benzenepropanamide] | 100 |
| CCN(Cc1ccccc1)C(=O)[C@H](Cc1ccccc1)Nc1nc2ccc(CNC(=O)OC(C)(C)C)c(C)c2c(=O)o1 [Example 7l, 1,1-Dimethylethyl[[2-[[2-[ethyl(phenylmethyl)amino]-2-oxo-1S-(phenylmethyl)ethyl]amino]-5-methyl-4-oxo-4H-3,1-benzoxazin-6-yl]methyl]carbamate] | 13 |
| COC(=O)[C@H](Cc1ccccc1)Nc1nc2ccc(NC(=O)Cc3cccs3)c(C)c2c(=O)o1 [Example 11g, N-[6-[[(2-Thienylmethyl)carbonyl]amino]-5-methyl-4-oxo-4H-3,1-benzoxazin-2-yl]-L-phenylalanine, methyl ester] | 10 |
| COC(=O)[C@H](Cc1cc(I)c(OC)c(I)c1)Nc1nc2ccc(NC(=O)OC(C)(C)C)c(C)c2c(=O)o1 [Example 6s, N-[6-[[(1,1-Dimethylethoxy)carbonyl]amino]-5-methyl-4-oxo-4H-3,1-benzoxazin-2-yl]-3,5-diiodo-O-methyl-L-tyrosine, methyl ester] | 18 |
| CC(=O)NCc1ccc2nc(N[C@@H](Cc3ccccc3)C(=O)N(C)Cc3ccccc3)oc(=O)c2c1C [Example 9x, αS-[[6-[(Acetylamino)methyl]-5-methyl-4-oxo-4H-3,1-benzoxazin-2-yl]amino]-N-methyl-N-(phenylmethyl)benzenepropanamide] | 16 |
